Results from PubChem BioAssay (NCI).
Several values for one entry are separate records, joined by “and”; a condition that tells them apart may be missing. Identical values can stand only once.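 Compound exposure: 48 hours, 5 concentrations, 96-well plates. Abbreviation: GI50, concentration required for 50% inhibition of growth. TGI is the concentration that stops growth completely.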

tested on: MDA-MB-468 breast; assay: inhibition of tumour cell growth, NCI panel, 48 h

Point of comparison: `N#C/C=C(\c1ccc([N+](=O)[O-])cc1)n1nnc2cc(Cl)c(Cl)cc21`, GI50 1.37 µM. Against it:
- Nc1nccc2c1ccn2-c1ccc(NC(=O)c2ccc(N3CCOCC3)c(C(F)(F)F)c2)cc1 — 1.6-fold higher, 2.16 µM
- Nc1c(C(=O)Nc2cccc(Br)c2)sc2nc3c(cc12)C(=O)CCC3 — 5.3-fold lower, 0.259 µM
- COc1cc(CNCCCN2C(=O)c3ccc4c5c(ccc(c35)C2=O)C(=O)N(CCCNCc2cc(OC)c(OC)c(OC)c2)C4=O)cc(OC)c1OC — 9-fold lower, 0.153 µM
- COc1cc(-c2nn(-c3cccc(NC(=O)Nc4ccc(Cl)c(Cl)c4)c3)cc2-c2ccncc2)ccc1Cl — 2.4-fold lower, 0.567 µM
- CCOC(=O)C(=Cc1cccc(Cl)c1)C(=O)OCC — within 1.5-fold, 1.81 µM
- CC1(C)OCCn2c1nc1c(N3CCOCC3)nc(-c3cnc(N)nc3)nc12 — 4-fold lower, 0.339 µM
- CC(C)=CCc1cc(O)cc2c1OC(C=C(C)C)C1=C2C(=O)C2=C(NCCS2(=O)=O)C1=O (stereo not drawn) — 1.9-fold higher, 2.54 µM
- CS(=O)(=O)CCCn1c(=O)c(Oc2ccc(F)cc2F)cc2cnc(NC3CCOCC3)nc21 — higher, > 25 µM
- N=c1ccn2c(n1)OC1C(O)C(CO)OC12 (stereo not drawn) — higher, > 100 µM
- COc1ccc2[nH]cc(-c3nc(-c4c[nH]c5ncccc45)cs3)c2c1 — 2-fold higher, 2.69 µM
- COc1cc(C2c3cc4c(cc3C(O)C(CO)C2CO)OCO4)cc(OC)c1OC (stereo not drawn) — 5.1-fold lower, 0.27 µM
- C=CC(=O)N1CCC(C2CCNc3c(C(N)=O)c(-c4ccc(Oc5ccccc5)cc4)nn32)CC1 (stereo not drawn) — 1.8-fold lower, 0.752 µM
- CCCCCCNC(=O)c1nc(-c2ccccc2)oc1Cc1ccc(OP(=O)(O)O)cc1 — 10-fold higher, 14.3 µM
- O=c1cc2oc3cc(O)c(O)cc3c(-c3ccccc3O)c-2cc1O — 9.2-fold higher, 12.6 µM
- Cn1cc(C2=C(c3cn(C)c4cc(C(N)=O)ccc34)C(=O)NC2=O)c2ccccc21 — within 1.5-fold, 1.18 µM
- O=C1c2c(c3c4cc(Br)ccc4[nH]c3c3ccc4ccccc4c23)C(=O)N1CCN1CCCCC1 — within 1.5-fold, 1.62 µM
- COc1ccncc1C#Cc1cncc(C(=O)Nc2ccc(CN3CCN(C)CC3)c(C(F)(F)F)c2)c1 — 18-fold higher, 24.7 µM
- Cc1ccc(/C=C/c2c(C(=O)/C=C/c3ccc(C(F)(F)F)cc3)c(C)nc3ccccc23)cc1 — within 1.5-fold, 1.84 µM
- Cc1csc(Nc2nc(-c3cccc(Br)c3)nc(C(Cl)(Cl)Cl)n2)n1 — 3.9-fold lower, 0.354 µM
- C[C@H]1Oc2cc(cnc2N)-c2c(nn(C)c2C#N)CN(C)C(=O)c2ccc(F)cc21 — 22-fold higher, 30.8 µM
- Cc1nc2cnc(N)c(C#Cc3cncc(C(=O)Nc4ccc(CN5CCN(C)CC5)c(C(F)(F)F)c4)c3)c2nc1C — 1.6-fold higher, 2.25 µM
- Cn1cnc([N+](=O)[O-])c1S(=O)(=O)Oc1ccccc1 — within 1.5-fold, 1.95 µM
- COc1cccc2c1C(=O)c1c(O)c3c(c(O)c1C2=O)CC(O)(/C(C)=N/NC(=O)CCC(=O)N/N=C(\C)C1(O)Cc2c(O)c4c(c(O)c2C(OC2CC(N)C(O)C(C)O2)C1)C(=O)c1c(OC)cccc1C4=O)CC3OC1CC(N)C(O)C(C)O1 (stereo not drawn) — 14-fold lower, 0.101 µM
- O=c1[nH]c(=O)n(C2CC(O)C(CO)O2)cc1CO (stereo not drawn) — higher, > 100 µM
- COC12C=C/C(=C(/C(=O)OCc3ccncc3)C(=O)CCCCCCCCC3(OC)C=C/C(=C(/C(=O)OCc4ccncc4)C(=O)CCCCCCCC1)O3)O2 — 2.2-fold lower, 0.635 µM

Point of comparison: `CCOC(=O)C(=Cc1cccc(Cl)c1)C(=O)OCC`, TGI 3.85 µM. Against it:
- Nc1nccc2c1ccn2-c1ccc(NC(=O)c2ccc(N3CCOCC3)c(C(F)(F)F)c2)cc1 — 4.3-fold higher, 16.5 µM
- Nc1c(C(=O)Nc2cccc(Br)c2)sc2nc3c(cc12)C(=O)CCC3 — higher, > 100 µM
- COc1cc(CNCCCN2C(=O)c3ccc4c5c(ccc(c35)C2=O)C(=O)N(CCCNCc2cc(OC)c(OC)c(OC)c2)C4=O)cc(OC)c1OC — 9.5-fold lower, 0.406 µM
- COc1cc(-c2nn(-c3cccc(NC(=O)Nc4ccc(Cl)c(Cl)c4)c3)cc2-c2ccncc2)ccc1Cl — 1.7-fold lower, 2.27 µM
- CC1(C)OCCn2c1nc1c(N3CCOCC3)nc(-c3cnc(N)nc3)nc12 — within 1.5-fold, 2.6 µM
- CC(C)=CCc1cc(O)cc2c1OC(C=C(C)C)C1=C2C(=O)C2=C(NCCS2(=O)=O)C1=O (stereo not drawn) — 2-fold higher, 7.89 µM
- CS(=O)(=O)CCCn1c(=O)c(Oc2ccc(F)cc2F)cc2cnc(NC3CCOCC3)nc21 — higher, > 25 µM
- N=c1ccn2c(n1)OC1C(O)C(CO)OC12 (stereo not drawn) — higher, > 100 µM
- COc1ccc2[nH]cc(-c3nc(-c4c[nH]c5ncccc45)cs3)c2c1 — higher, > 100 µM
- C=CC(=O)N1CCC(C2CCNc3c(C(N)=O)c(-c4ccc(Oc5ccccc5)cc4)nn32)CC1 (stereo not drawn) — 2.2-fold higher, 8.52 µM
- CCCCCCNC(=O)c1nc(-c2ccccc2)oc1Cc1ccc(OP(=O)(O)O)cc1 — 7.3-fold higher, 28.2 µM
- O=c1cc2oc3cc(O)c(O)cc3c(-c3ccccc3O)c-2cc1O — 11-fold higher, 42.6 µM
- Cn1cc(C2=C(c3cn(C)c4cc(C(N)=O)ccc34)C(=O)NC2=O)c2ccccc21 — 4.1-fold higher, 15.9 µM
- O=C1c2c(c3c4cc(Br)ccc4[nH]c3c3ccc4ccccc4c23)C(=O)N1CCN1CCCCC1 — within 1.5-fold, 3.52 µM
- COc1ccncc1C#Cc1cncc(C(=O)Nc2ccc(CN3CCN(C)CC3)c(C(F)(F)F)c2)c1 — higher, > 100 µM
- Cc1ccc(/C=C/c2c(C(=O)/C=C/c3ccc(C(F)(F)F)cc3)c(C)nc3ccccc23)cc1 — within 1.5-fold, 3.53 µM
- Cc1csc(Nc2nc(-c3cccc(Br)c3)nc(C(Cl)(Cl)Cl)n2)n1 — 2.5-fold lower, 1.55 µM
- C[C@H]1Oc2cc(cnc2N)-c2c(nn(C)c2C#N)CN(C)C(=O)c2ccc(F)cc21 — higher, > 100 µM
- N#Cc1c(-c2ccc(F)cc2)c(-c2ccc(F)cc2)nn(CCO)c1=O — higher, > 100 µM
- Cc1nc2cnc(N)c(C#Cc3cncc(C(=O)Nc4ccc(CN5CCN(C)CC5)c(C(F)(F)F)c4)c3)c2nc1C — 4.1-fold higher, 15.9 µM
- Cn1cnc([N+](=O)[O-])c1S(=O)(=O)Oc1ccccc1 — within 1.5-fold, 4.68 µM
- N#C/C=C(\c1ccc([N+](=O)[O-])cc1)n1nnc2cc(Cl)c(Cl)cc21 — within 1.5-fold, 3.33 µM
- COc1cccc2c1C(=O)c1c(O)c3c(c(O)c1C2=O)CC(O)(/C(C)=N/NC(=O)CCC(=O)N/N=C(\C)C1(O)Cc2c(O)c4c(c(O)c2C(OC2CC(N)C(O)C(C)O2)C1)C(=O)c1c(OC)cccc1C4=O)CC3OC1CC(N)C(O)C(C)O1 (stereo not drawn) — 11-fold lower, 0.34 µM
- O=c1[nH]c(=O)n(C2CC(O)C(CO)O2)cc1CO (stereo not drawn) — higher, > 100 µM
- COC12C=C/C(=C(/C(=O)OCc3ccncc3)C(=O)CCCCCCCCC3(OC)C=C/C(=C(/C(=O)OCc4ccncc4)C(=O)CCCCCCCC1)O3)O2 — 1.9-fold lower, 2 µM

With `O=C(c1ccc(F)c(F)c1Nc1ccc(I)cc1F)N1CC(O)([C@@H]2CCCCN2)C1` the GI50 was 3.75 µM and 1.79 µM.
`O=C(c1c(F)ccc(NS(=O)(=O)N2CC[C@@H](F)C2)c1F)c1c[nH]c2ncc(-c3cnc(C4CC4)nc3)cc12` was tested, and the GI50 was 3.93 µM and 3.67 µM.
For `CC(=O)c1cc2c(o1)C(=O)c1ccccc1C2=O`, the GI50 was 0.912 µM and 1.26 µM.

For `O=C(c1ccc(F)c(F)c1Nc1ccc(I)cc1F)N1CC(O)([C@@H]2CCCCN2)C1`, the TGI was 16.2 µM and > 8.97 µM.
In the case of `O=C(c1c(F)ccc(NS(=O)(=O)N2CC[C@@H](F)C2)c1F)c1c[nH]c2ncc(-c3cnc(C4CC4)nc3)cc12`, the TGI is reported as > 10 µM and 27.9 µM.
In the case of `CC(=O)c1cc2c(o1)C(=O)c1ccccc1C2=O`, the TGI is reported as 2.54 µM and 2.8 µM.
